This note sets out measurements from patent US8735609B2, “Bryostatin analogues, synthetic methods and uses” (The Board of Trustees of the Leland Stanford Junior …, priority 2007, dated 2014).

For one experiment, the system named is SR. As to the kind of experiment: NCI human cancer cell line growth inhibition: SR (Leukemia). The class given is cell-based. To be noted: Homo sapiens.
The subject of another experiment is SK-MEL-28. As to the kind of experiment: NCI human cancer cell line growth inhibition: SK-MEL-28 (Melanoma). To be noted: Homo sapiens. It is filed as cell-based.
A further experiment concerns SF-539. The experiment in a line: NCI human cancer cell line growth inhibition: SF-539 (CNS). The class given is cell-based. To be noted: Homo sapiens.
For another experiment, the system named is UO-31. As to the kind of experiment: NCI human cancer cell line growth inhibition: UO-31 (Renal). It is filed as cell-based. Particulars: Homo sapiens.
The test system of the next experiment is HOP-62. The experiment in a line: NCI human cancer cell line growth inhibition: HOP-62 (NSC Lung). To be noted: Homo sapiens. It is filed as cell-based.
Experiment [1] deals with NCI human cancer cell-lines. As to the kind of experiment: In vitro inhibition of growth in NCI human cancer cell lines (panel). The class given is cell-based.
Another experiment concerns A549/ATCC. The experiment in a line: NCI human cancer cell line growth inhibition: A549/ATCC (NSC Lung). It is filed as cell-based. To be noted: Homo sapiens.
In another experiment the test system is MCF7. The experiment in a line: NCI human cancer cell line growth inhibition: MCF7 (Breast). The class given is cell-based. Particulars: Homo sapiens.
The subject of a further experiment is HT29. As to the kind of experiment: NCI human cancer cell line growth inhibition: HT29 (Colon). To be noted: Homo sapiens, HT-29. It is filed as cell-based.
Another experiment has as its system 786-0. The experiment in a line: NCI human cancer cell line growth inhibition: 786-0 (Renal). It is filed as cell-based. Particulars: Homo sapiens.
Another experiment concerns NCI/ADR-RES. It is filed as cell-based, human. To be noted: Homo sapiens, Breast, read-out: Growth inhibition (GI50) (converted).
For the next experiment, the system named is OVCAR-3. The experiment in a line: NCI human cancer cell line growth inhibition: OVCAR-3 (Ovarian). The class given is cell-based. To be noted: Homo sapiens.
Another experiment concerns HCT-116. As to the kind of experiment: NCI human cancer cell line growth inhibition: HCT-116 (Colon). The class given is cell-based. Particulars: Homo sapiens.
The subject of another experiment is DU-145. As to the kind of experiment: NCI human cancer cell line growth inhibition: DU-145 (Prostate). To be noted: Homo sapiens. It is filed as cell-based.
The next experiment concerns UACC-257. As to the kind of experiment: NCI human cancer cell line growth inhibition: UACC-257 (Melanoma). The class given is cell-based. To be noted: Homo sapiens.
For the next experiment, the system named is HL-60(TB). The experiment in a line: cells. To be noted: Homo sapiens, HL-60, read-out: Growth inhibition (GI50). It is filed as cell-based, human.
A further experiment concerns HCC-2998. As to the kind of experiment: NCI human cancer cell line growth inhibition: HCC-2998 (Colon). The class given is cell-based. Particulars: Homo sapiens.

For orientation: GI50 means the concentration that inhibits growth by half. Turning to `CCCCCCCC(=O)O[C@H]1/C(=C/C(=O)OC)C[C@H]2C[C@H](CO)OC(=O)C[C@H](O)C[C@@H]3CCC[C@H](C[C@@H]4CCO[C@H](/C=C/C(C)(C)[C@]1(O)O2)O4)O3` [Formula IIa (702.1)], the GI50 in the experiment with SR was 7.94 µM; in the experiment with SK-MEL-28 it was 21.4 µM; with SF-539 it was 1.7 µM; in the experiment with UO-31, 14.1 µM; in the experiment with HOP-62, 16.2 µM; in the experiment with A549/ATCC it was 0.24 µM. Besides, the 50% growth inhibitory concentration (GI50) in the experiment with MCF7 was 3.98 µM; in the experiment with HT29, 2.82 µM; with 786-0 it was 3.47 µM; with NCI/ADR-RES, 18.2 µM; in the experiment on OVCAR-3 it was 14.8 µM; in the experiment on HCT-116, 4.79 µM. The GI50 with DU-145 is 9.55 µM; in the experiment on UACC-257, 7.41 µM; in the experiment on HL-60(TB), 1.45 µM; in the experiment on HCC-2998, 0.0288 µM. Further, in experiment [1] (K-562, MOLT-4, NCI-H460, HCC-2998, TK-10, MDA-MB-435), the “more active than bryostatin-1” value is reported as “more than 2 orders of magnitude”. For the same compound, in experiment [1] (all cell groups tested), the “potency compared with bryostatin-1, on average” value is listed as “at least as potent, on average, as bryostatin-1”.
